Measured values as given in PMC10412636, “An analysis of interactions between three structurally diverse anthocyanidins, as well as their glucosides, and model biological membranes, albumin, and plasmid DNA” (Scientific Reports, 2023).

How the values were obtained:
pHbApr-1-Neo plasmid DNA = experiment: TCSPC-FCS of PicoGreen-labelled plasmid DNA with anthocyanins; assay type: binding
Description: To evaluate the biological interaction with DNA molecules the anthocyanins were initially dissolved in ETOH (1 mM). […] Mixing of such solutions with the aqueous DNA solutions used in the studies never exceeded 1% concentration ETOH (v/v) in the final solution. The DNA plasmid was labelled by PicoGreen (CPicoGreen/CDNAbp = 0.02)[52]. The pHbApr-1-Neo plasmid (10 kbp and contour length 3.4 µm) was a generous gift from the laboratory of Prof. Maciej Ugorski (Department of Biochemistry and Molecular Biology, Wrocław University of Environmental and Life Sciences Wroclaw, Poland). PicoGreen-labelled DNA samples mixed with the appropriate amount of anthocyanins were left overnight and then measured. The increasing concentration of anthocyanins in the tested samples was expressed as the ratio of the molar concentration of anthocyanins per molar concentration of DNA base pairs in a given sample (comp/bp). The 100 µl samples were measured in Ibidi 8-well chambers. Each point on the graph is a single sample (average of 10 measurements). All measurements were performed at room temperature (25 °C). Time-correlated single-photon counting fluorescence correlation spectroscopy (TCSPC-FCS) was used to study the interaction of plasmid DNA at the single molecule level with all tested anthocyanins. […] Low power of 1uW (at the back aperture of the objective) was chosen to minimize photobleaching and saturation. In the detection plane, a pinhole (50um in diameter) was used and the signal was collected by a single photon avalanche diode (SPAD, Microphoton Devices, Bolzano, Italy). Photon arrival times were stored using fast electronics (Picoharp 300, PicoQuant) in time-tagged time-resolved recording mode. Two independent times were assigned to each detected photon: (1) a time after the beginning of the measurement and (2) a time after the previous laser pulse. The FCS data analysis was done using home-built routines (DevC++, Bloodshed Software and OriginPro70, OriginLab Corporation). The TCSPC data analysis was performed using SymPhoTime software (PicoQuant). Further details of the data evaluation are given elsewhere.

[1] = TMA-DPH probe fluorescence anisotropy in MM liposomes; details: negative = increase in anisotropy
Description: (§1) Two types of liposomes were used to study interactions with biological membranes: liposomes mimicking the composition of cancer cell membranes (mimic membrane liposome—MM) and liposomes formed from lipids extracted from human blood erythrocyte membranes (red blood cell membrane liposome—RBCM). […] Both lipids, dissolved in chloroform (MM liposome) and n-decane (RBCM liposome), were evaporated under a nitrogen atmosphere, and then dried in a desiccator for 90 min under a vacuum. The obtained dry lipid film was hydrated in phosphate buffer, pH 7.4, obtaining a concentration of 0.1 mg/ml, and then vortexed for one minute until a homogeneous, milky suspension was observed. The mixture was sonicated (Sonic, Milano, Italia) for 15 min keeping the sample in a bath of ice water, thus providing a cooling temperature of 0 °C. The suspension was then processed (extrusion) through polycarbonate filters with pore diameters of 100 and 200 nm using a Lipex extruder (Evonik). Liposomes, which had been prepared according to this procedure, was used in fluorimetric studies.
(§2) To investigate these properties three fluorescent probes were used: MC540, TMA-DPH, and DPH. MC540 localizes to the outer, hydrophilic part of the membrane, within the region of the glycerol skeleton[44]. Changes in the fluorescence intensity of this probe were formulated as the relative change in intensity to the control as a function of anthocyanins concentration. The TMA-DPH and DPH probes are supposed to locate nearer to the interface and in the hydrophobic region, respectively[45]. The measurement of changes in the anisotropy of the TMA-DPH and DPH probes allowed us to reflect the mobility of the fluorescent probes in the membrane, and therefore to determine the fluidity of the bilayer[46]. Fluorescence anisotropy was calculated using the formula[47]:1 A=I‖-GI⊥/I‖+2GI⊥ where I‖ and I⊥ are the intensity of fluorescence in parallel and perpendicular directions, to the plane of polarization of the excitation wave, respectively. G is an apparatus constant that depends on the emission wavelength.
(§3) Liposomes (the concentration of lipids in the sample was 0.1 mg/ml) were incubated for 30 min with the appropriate probe (dissolved in DMF, 1 µM concentration), and then the tested anthocyanins were added (final concentration of 1 to 30 µM). The control sample consisted of liposomes and a fluorescent probe. Fluorescence was measured on a fluorimeter (Cary Eclipse, Varian, San Diego, USA) at 37 °C. The excitation wavelengths λex and emission wavelengths λem respectively: MC540—λexc = 540 nm, λem = 590 nm; DPH—λexc = 360 nm, λem = 425 nm. nm; TMA-DPH—λexc = 340 nm, λem = 430 nm.

[2] = MC540 probe fluorescence intensity in RBCM liposomes; parameters: species or system human; details: 37 °C, positive = decrease
Description: as §1, §2, §3

[3] = MC540 probe fluorescence intensity in MM liposomes; details: 37 °C, positive = decrease
[4] = DPH fluorescence quenching, dissociation constant with MM liposome membrane; assay type: binding; details: 37 °C
[5] = molecular target: human serum albumin (HSA) (Homo sapiens, UniProt P02768); experiment: Quenching of natural fluorescence of human serum albumin; assay type: binding; details: HSA […] 10^–5 M, 37 °C
[6] = DPH probe fluorescence anisotropy in RBCM liposomes; parameters: species or system human; details: RBCM, negative = increase in anisotropy
Description: as §1, §2, §3

[7] = TMA-DPH probe fluorescence anisotropy in RBCM liposomes; parameters: species or system human; details: negative = increase in anisotropy
Description: Two types of liposomes were used to study interactions with biological membranes: liposomes mimicking the composition of cancer cell membranes (mimic membrane liposome—MM) and liposomes formed from lipids extracted from human blood erythrocyte membranes (red blood cell membrane liposome—RBCM). […] The RBCM liposome was according to the methodology described previously[42] with minor modifications[43]. Both lipids, dissolved in chloroform (MM liposome) and n-decane (RBCM liposome), were evaporated under a nitrogen atmosphere, and then dried in a desiccator for 90 min under a vacuum. The obtained dry lipid film was hydrated in phosphate buffer, pH 7.4, obtaining a concentration of 0.1 mg/ml, and then vortexed for one minute until a homogeneous, milky suspension was observed. The mixture was sonicated (Sonic, Milano, Italia) for 15 min keeping the sample in a bath of ice water, thus providing a cooling temperature of 0 °C. The suspension was then processed (extrusion) through polycarbonate filters with pore diameters of 100 and 200 nm using a Lipex extruder (Evonik). Liposomes, which had been prepared according to this procedure, was used in fluorimetric studies.
To investigate these properties three fluorescent probes were used: MC540, TMA-DPH, and DPH. MC540 localizes to the outer, hydrophilic part of the membrane, within the region of the glycerol skeleton[44]. […] The TMA-DPH and DPH probes are supposed to locate nearer to the interface and in the hydrophobic region, respectively[45]. The measurement of changes in the anisotropy of the TMA-DPH and DPH probes allowed us to reflect the mobility of the fluorescent probes in the membrane, and therefore to determine the fluidity of the bilayer[46]. Fluorescence anisotropy was calculated using the formula[47]:1 A=I‖-GI⊥/I‖+2GI⊥ where I‖ and I⊥ are the intensity of fluorescence in parallel and perpendicular directions, to the plane of polarization of the excitation wave, respectively. G is an apparatus constant that depends on the emission wavelength.
as §3

[8] = DPH probe fluorescence anisotropy in MM liposomes; details: MM, negative = increase in anisotropy
[9] = DPH fluorescence quenching, dissociation constant with RBCM liposome membrane; assay type: binding, human; details: 37 °C
Description: as §1
The phenomenon of quenching the fluorescence of the DPH probe by biologically active substances enabled us to evaluate the partition coefficient (Kd, dissociation constant) of anthocyanins with both MM and RBCM liposome membranes. For this purpose, changes in the fluorescence intensity of this probe were checked and the coefficient was calculated using the equation[48]:2 1/F0/F-1=Kd/[liposomes]×1/[anthocyanins]+1/liposomes where F0—fluorescence intensity in the absence of anthocyanins (control sample), F—fluorescence intensity in the presence of anthocyanins, [liposomes]—concentration of liposomes in mg/ml, [anthocyanins]—concentration of anthocyanins tested mg/ml.
as §3

human serum albumin (HSA), sequence (P02768 25-609): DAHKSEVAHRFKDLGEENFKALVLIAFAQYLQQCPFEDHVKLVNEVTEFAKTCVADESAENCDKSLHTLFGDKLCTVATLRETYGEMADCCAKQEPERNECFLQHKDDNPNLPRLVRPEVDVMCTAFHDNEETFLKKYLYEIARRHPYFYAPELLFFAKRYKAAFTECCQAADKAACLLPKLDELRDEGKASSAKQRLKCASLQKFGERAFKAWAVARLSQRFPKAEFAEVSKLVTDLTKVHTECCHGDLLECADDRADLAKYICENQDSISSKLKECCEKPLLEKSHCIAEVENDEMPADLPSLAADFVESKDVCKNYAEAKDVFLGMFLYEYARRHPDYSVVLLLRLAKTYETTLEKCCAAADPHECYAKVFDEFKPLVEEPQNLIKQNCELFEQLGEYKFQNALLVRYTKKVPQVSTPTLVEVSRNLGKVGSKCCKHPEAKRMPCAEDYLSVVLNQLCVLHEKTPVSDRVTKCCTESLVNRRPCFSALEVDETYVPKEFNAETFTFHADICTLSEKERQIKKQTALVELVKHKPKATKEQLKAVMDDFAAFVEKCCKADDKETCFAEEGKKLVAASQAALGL

**Q.** Which “change in Particle Number (PN)” value (pHbApr-1-Neo plasmid DNA; comp/bp 1.0–5.0) does the source give for `Oc1cc(O)c2cc(O)c(-c3cc(O)c(O)c(O)c3)[o+]c2c1` [Dp, Delphinidin] here?
**A.** The value was “no changes”.

**Q.** And the “diffusion time (tD), plateau” value (pHbApr-1-Neo plasmid DNA; comp/bp 1.0–5.0)?
**A.** The value was 25 to 28 ms.

**Q.** What about the “lifetime (LT)” value (pHbApr-1-Neo plasmid DNA; comp/bp 1.0–5.0, decrease from 3.5 ns) of the same molecule?
**A.** The value was “about 2.3 ns”.

**Q.** What about the “decrease in the diffusion time (tD)” value (pHbApr-1-Neo plasmid DNA; comp/bp = 0.8, from about 70 ms) of the same molecule?
**A.** The value was “tenfold”.

**Q.** And the “lifetime (LT)” value (pHbApr-1-Neo plasmid DNA; comp/bp = 0.8, plasmid alone 4.25 ns)?
**A.** Its value is “about 3.5 ns”.

**Q.** And the “Particle Number (PN)” value (pHbApr-1-Neo plasmid DNA; comp/bp = 0.8, plasmid alone 5)?
**A.** Its value is “about 1.2”.

**Q.** What about the “diffusion time (tD)” value (pHbApr-1-Neo plasmid DNA; comp/bp = 0.8, plasmid alone about 70 ms) of the same molecule?
**A.** The value was 7.0 ms.

**Q.** What about the “changes in plasmid tD, lower compared to those obtained for Pt 3-glc” value (pHbApr-1-Neo plasmid DNA; comp/bp up to 0.8) of the same molecule?
**A.** The value was “about 2 fold”.

**Q.** And the “decrease in tD compared to the initial plasmid diffusion time” value (pHbApr-1-Neo plasmid DNA; plateau, comp/bp 1.0–5.0)?
**A.** Its value is “twofold”.

**Q.** And the “Changes in TMA-DPH anisotropy relative to the control” value ([1]; 1 µM)?
**A.** The value was -5.27±0.20%.

**Q.** And the “Changes in TMA-DPH anisotropy relative to the control” value ([1]; 5 µM)?
**A.** The value was -5.27±0.16%.

**Q.** And the “Changes in TMA-DPH anisotropy relative to the control” value ([1]; 10 µM)?
**A.** The value was -2.04±0.17%.

**Q.** And the “Changes in TMA-DPH anisotropy relative to the control” value ([1]; 20 µM)?
**A.** The value was 0.86±0.02%.

**Q.** And the “Changes in TMA-DPH anisotropy relative to the control” value ([1]; 30 µM)?
**A.** Its value is -7.43±0.30%.

**Q.** What about the “Changes in MC540 fluorescence intensity relative to the control” value ([2]; 1 µM) of the same molecule?
**A.** The value was 19.22±0.56%.

**Q.** What about the “Changes in MC540 fluorescence intensity relative to the control” value ([2]; 5 µM) of the same molecule?
**A.** Its value is 30.39±0.90%.

**Q.** What about the “Changes in MC540 fluorescence intensity relative to the control” value ([2]; 10 µM) of the same molecule?
**A.** The value was 42.45±2.77%.

**Q.** And the “Changes in MC540 fluorescence intensity relative to the control” value ([2]; 20 µM)?
**A.** The value was 58.15±3.73%.

**Q.** And the “Changes in MC540 fluorescence intensity relative to the control” value ([2]; 30 µM)?
**A.** Its value is 64.08±6.62%.

**Q.** And the “Changes in MC540 fluorescence intensity relative to the control” value ([2]; 30 µM, listed as delphinidin)?
**A.** The value was 64.1 ± 6.6%.

**Q.** And the “Changes in MC540 fluorescence intensity relative to the control” value ([3]; 1 µM)?
**A.** The value was 13.66±1.64%.

**Q.** What about the “Changes in MC540 fluorescence intensity relative to the control” value ([3]; 5 µM) of the same molecule?
**A.** Its value is 26.57±1.99%.

**Q.** What about the “Changes in MC540 fluorescence intensity relative to the control” value ([3]; 10 µM) of the same molecule?
**A.** The value was 41.91±1.76%.

**Q.** What about the “Changes in MC540 fluorescence intensity relative to the control” value ([3]; 20 µM) of the same molecule?
**A.** Its value is 63.50±4.28%.

**Q.** And the “Changes in MC540 fluorescence intensity relative to the control” value ([3]; 30 µM)?
**A.** Its value is 73.23±5.31%.

**Q.** And the “Changes in MC540 fluorescence intensity relative to the control” value ([3]; 30 µM, listed as delphinidin)?
**A.** The value was 73.2 ± 5.3%.

**Q.** And the Kd [4]?
**A.** Its Kd is 11.5 ± 2.07 µM.

**Q.** And the “Stern Volmer constant KSV” value [5]?
**A.** The value was 22.46 ± 1.00 × 10^3 M^−1.

**Q.** What about the “number of binding sites n” value [5] of the same molecule?
**A.** The value was 1.03 ± 0.05.

**Q.** What about the “Changes in DPH anisotropy relative to the control” value ([6]; 1 µM) of the same molecule?
**A.** The value was -9.06±0.14%.

**Q.** And the “Changes in DPH anisotropy relative to the control” value ([6]; 5 µM)?
**A.** The value was -9.32±0.41%.

**Q.** And the “Changes in DPH anisotropy relative to the control” value ([6]; 10 µM)?
**A.** The value was -6.55±0.22%.

**Q.** What about the “Changes in DPH anisotropy relative to the control” value ([6]; 20 µM) of the same molecule?
**A.** Its value is -8.84±0.31%.

**Q.** And the “Changes in DPH anisotropy relative to the control” value ([6]; 30 µM)?
**A.** The value was -7.33±0.24%.

**Q.** What about the “Changes in TMA-DPH anisotropy relative to the control” value ([7]; 1 µM) of the same molecule?
**A.** The value was -5.61±0.35%.

**Q.** And the “Changes in TMA-DPH anisotropy relative to the control” value ([7]; 5 µM)?
**A.** Its value is -2.41±0.11%.

**Q.** And the “Changes in TMA-DPH anisotropy relative to the control” value ([7]; 10 µM)?
**A.** Its value is 1.85±0.06%.

**Q.** And the “Changes in TMA-DPH anisotropy relative to the control” value ([7]; 20 µM)?
**A.** The value was 1.35±0.15%.

**Q.** And the “Changes in TMA-DPH anisotropy relative to the control” value ([7]; 30 µM)?
**A.** The value was 4.73±0.21%.

**Q.** And the “Changes in DPH anisotropy relative to the control” value ([8]; 1 µM)?
**A.** Its value is -8.87±0.24%.

**Q.** And the “Changes in DPH anisotropy relative to the control” value ([8]; 5 µM)?
**A.** Its value is -12.33±0.13%.

**Q.** And the “Changes in DPH anisotropy relative to the control” value ([8]; 10 µM)?
**A.** The value was -14.45±0.24%.

**Q.** And the “Changes in DPH anisotropy relative to the control” value ([8]; 20 µM)?
**A.** Its value is -16.33±0.38%.

**Q.** And the “Changes in DPH anisotropy relative to the control” value ([8]; 30 µM)?
**A.** The value was -12.45±0.57%.

**Q.** And the Kd [9]?
**A.** Its Kd is 9.89 ± 1.96 µM.
